The record followed here is US20130296344A1, “CHROMENE DERIVATIVES AND THEIR ANALOGA AS WNT PATHWAY ANTAGONISTS” (Ruprecht-Karls-Universitat Heidelberg, priority 2010, published 2013).

Data set [1] has as its system SW480 colon carcinoma cells. Nature of the data set: Antiproliferative activity against SW480 colon carcinoma cells (nuclei count). In kind it is cell-based. Particulars: Homo sapiens, 5 nM-90 microM. As to the method:
(§1) For examination of cell line-specific cytotoxicity, compounds were applied to human colorectal cancer cells (HCT116, denoted (1); SW480, denoted (2); Dld-1, denoted (3)) and human fibroblasts (HS-68, denoted (4)), cultured in Mc Coy's ((1)) and Dulbecco's Modified Eagles Medium ((2)-(4)), supplemented with 10% ((1)-(3)) and 20% ((4)) fetal calf serum and 1% penicillin/streptomycin. Cells were grown in T75 flasks at 37° C., 5% CO2 and trypsinized when 60-80% confluent by adding 2 ml of 0.25% Trypsin-EDTA (ethylenediaminetetraacetic acid) solution. Cells were then re-suspended into culture medium yielding approx. 750 cells, suspended in 45 microl medium, were plated into each well of a black 384-well plate for fluorescence imaging experiments. 24-36 hr later 5 microl compound solution (100 microM compound dissolved in ultra pure water containing 1% DMSO (dimethylsulfoxide)), were added to achieve a final concentration of 10 microM and were incubated for at least 72 hr. Compound incubation was terminated by (a) fixation and (b) permeabilisation of cells, followed by (c) fluorescence labeling of cell nuclei for cytometric quantification or by immunocytochemistry for microscopic evaluation of cell morphology. […] Solutions were incubated for 15 (a,b) and 30 min (c) in the dark at room temperature. Cells were washed twice between each step with 30 microl PBS. The assay system was miniaturized and adapted to automated workflow using liquid-handling robotics.
(§2) Cell line-specific cytotoxicity was quantified by counting the number of Hoechst labeled nuclei per well of a 384-well plate using a plate cytometer. Data obtained with the cytometer was analysed using standard data analysis software.
(§3) The examination of the antiproliferative activity against human colon carcinoma cells Dld1, HCT116 and SW480 was carried out in analogy to the procedure carried out for HS68. The respective compound applied in increasing concentrations yielding final concentrations per well of 5 nM-90 microM.

Data set [2] has as its system Dld1 colon carcinoma cells. Nature of the data set: Antiproliferative activity against Dld1 colon carcinoma cells (nuclei count). The class given is cell-based, human. Particulars: Homo sapiens, DLD-1; colon carcinoma cells, 5 nM-90 microM, nuclei count; read-out: Dld1 IC50. As to the method: as §1, §2, §3
Data set [3] deals with HCT116 colon carcinoma cells. Nature of the data set: Antiproliferative activity against HCT116 colon carcinoma cells (nuclei count). The class given is cell-based, human. Particulars: Homo sapiens, HCT-116; colon carcinoma cells, 5 nM-90 microM, nuclei count; read-out: HCT116 IC50. As to the method:
as §1, §2, §3

The test system of data set [4] is human fibroblasts (HS-68). Nature of the data set: Cell line specific cytotoxicity, normal cells HS68 (nuclei count). The conditions noted are these: at least 72 hr incubation, Hoechst nuclei count, read-out: HS68 IC50 (influence on normal cells). In kind it is cell-based. On the procedure: as §1, §2
Identified hits were further evaluated by visual inspection of fluorescence micrographs obtained from imaging using a conventional fluorescence microscope.

Data set [5] is described as follows: Cytotoxicity in Hek293T (CellTiterGlo). The conditions noted are these: human, Hek293T cells, 24 h after compound addition, 5 nM-100 microM, read-out: Hek293T IC50 (cytotoxic activity). The class given is cell-based. On the procedure: (§4) For examination of cytotoxicity in these cancer cell lines the commercial available CellTiterGlo® Reagent (Promega, USA) was used according to the manufactor. Compounds were applied to Hek293T (denoted (a)) or HepG2 (denoted (b)), cultured in Dulbecco's Modified Eagles Medium, supplemented with 10% fetal calf serum and 1% penicillin/streptomycin. Cells were grown in T75 flasks at 37° C., 5% CO2 and trypsinized when 60-80% confluent by adding 2 ml of 0.25% Trypsin-EDTA solution. Cells were then re-suspended into culture medium yielding approx. 4000 cells (a) or 4500 cells (b), suspended in 30 microl medium. 48 h after cell seeding, compounds were added to yield the desired final concentrations. 24 h after compound addition cytotoxicity was evaluated. For this purpose the media was removed and CellTiterGlo® was added according to the manufactors manual. In this assay the luciferase emission readout is directly correlated with the cellular amount of ATP, low luciferase emission thus is reflecting cytotoxicity of a compound.

A short description of data set [6]: Cytotoxicity in HepG2 (CellTiterGlo). In kind it is cell-based. The conditions noted are these: human, HepG2 cells, 24 h after compound addition, 5 nM-100 microM, read-out: HepG2 IC50 (cytotoxic activity). As to the method:
as §4

In data set [7] the test system is Wnt pathway (Wnt1/Frzd8). Nature of the data set: Wnt signaling pathway reporter gene assay (6xTCF-luciferase, Wnt1/Frizzled 8/LRP6 stimulated Hek293T cells). The class given is cell-based, mouse (Wnt1, human (LRP6). The conditions noted are these: Homo sapiens, HEK-293T, Hek293T, 6xTCF-luciferase reporter, 24 h incubation, 5 nM-100 microM, read-out: Wnt1/Frzd8 IC50 (Wnt pathway inhibitory activity). The source says: To screen for small-molecule modulators of the Wnt signaling pathway, a reporter gene based assay describing the modulation of the TCF4 transcription factor was used. […]

Structures are written as SMILES. Read-outs that look alike come from different tables or passages of the source. A value given as a limit tells only on which side of the number the result lay.

For `N#CC1=C(N)Oc2c(ccc3ccccc23)C1c1cc(F)c(F)c(F)c1` (stereo not shown) [(7), 2-Amino-4-(3,4,5-trifluoro-phenyl)-4H-benzo[h]chromene-3-carbonitrile], the IC50 was 2.86 µM in data set [1]; 0.474 µM in data set [2]; 0.922 µM in data set [3]; over 90 µM in data set [4]; 0.316 µM in data set [7]. The IC50 at 24 h in data set [5] and in data set [6] was over 90 µM throughout.

Turning to `COc1cc(C2C(C#N)=C(N)Oc3c2ccc2ccc(C)nc32)cc(Br)c1OC` (stereo not shown) [(16), 3-Amino-1-(3-bromo-4,5-dimethoxy-phenyl)-6-methyl-1H-4-oxa-5-aza-phenanthrene-2-carbonitrile], the IC50 in data set [1] was determined as 3.16 µM; in data set [2], 2.9 µM; in data set [3], 3.34 µM; in data set [4], 4.95 µM; in data set [7], 1.13 µM. Besides, the IC50 at 24 h in data set [5] and in data set [6] was over 90 µM each time.

In the case of `COc1cc(C2C(C#N)=C(N)Oc3c2ccc2ncccc32)cc(Br)c1OC` (stereo not shown) [(18), 6-Amino-8-(3-bromo-4,5-dimethoxy-phenyl)-8H-5-oxa-1-aza-phenanthrene-7-carbonitrile], the IC50 in data set [1] worked out at 19.7 µM; in data set [2], 0.185 µM; in data set [3] it was 0.331 µM; in data set [4] it was 2.77 µM; in data set [7], 0.033 µM. Moreover, the IC50 at 24 h in data set [5] and in data set [6] was over 90 µM each time.

Take `N#CC1=C(N)Oc2cc3ccccc3cc2C1c1cc(F)c(F)c(F)c1` (stereo not shown) [(28), 2-amino-4-(3,4,5-trifluoro-phenyl)-4H-benzo[g]chromene-3-carbonitrile]: the IC50 in data set [1] is 53.6 µM; in data set [2] it was 22 µM; in data set [3], 30.3 µM; in data set [4] it was over 90 µM; in data set [7], 2.4 µM. Further, the IC50 at 24 h is over 90 µM in data set [5] and 31.7 µM in data set [6].

Regarding `N#CC1=C(N)Oc2cc3ccccc3cc2C1c1cc(F)c(N2CCCCC2)c(F)c1` (stereo not shown) [(29), 2-amino-4-(3,5-difluoro-4-piperidin-1-yl-phenyl)-4H-benzo[g]chromene-3-carbonitrile], the IC50 is 38.5 µM in data set [1]; over 90 µM in data set [2]; over 90 µM in data set [3]; over 90 µM in data set [4]; 6.48 µM in data set [7]. Further, the figures for the IC50 at 24 h in data set [5] and in data set [6] were over 90 µM and 42.5 µM, respectively.

As for `COc1cc(C2C(C#N)=C(N)Oc3cc4ccccc4cc32)cc(Br)c1OC` (stereo not shown) [(30), 2-Amino-4-(3-bromo-4,5-dimethoxy-phenyl)-4H-benzo[g]chromene-3-carbonitrile], the IC50 in data set [1] is 7.6 µM; in data set [2], 8.97 µM; in data set [3] it was 2.9 µM; in data set [4] it was 5.15 µM; in data set [7] it was 0.697 µM. In addition, the IC50 at 24 h in data set [5] and in data set [6] was over 90 µM in each case.

As to `COc1cc(C2C(C#N)=C(N(C)C)Oc3cc4ccccc4cc32)cc(Br)c1OC` (stereo not shown) [(31), 2-Dimethylamino-4-(3-bromo-4,5-dimethoxy-phenyl)-4H-benzo[g]chromene-3-carbonitrile], the IC50 in data set [1] is 12 µM; in data set [2] it was 4.56 µM; in data set [3], 10 µM; in data set [4], over 90 µM; in data set [7] (24 h), 1.97 µM. Also, the IC50 at 24 h in data set [5] and in data set [6] was over 90 µM in each case.

For `CCOC(=O)C1=C(N)Oc2cc3c(cc2C1c1cc(F)c(F)c(F)c1)OCO3` (stereo not shown) [(40), 6-Amino-8-(3,4,5-trifluoro-phenyl)-8H-[1,3]dioxolo[4,5-g]chromene-7-carboxylic acid ethyl ester], the IC50 in data set [1] was 6.38 µM; in data set [2], 15.7 µM; in data set [3], over 90 µM; in data set [4], over 90 µM; in data set [7] (24 h) it was 3.42 µM. For the same compound, the IC50 at 24 h in data set [5] and in data set [6] was over 90 µM each time.

For `C=CCOc1c(Br)cc(C2C(C#N)=C(N)Oc3cc4c(cc32)OCO4)cc1OC` (stereo not shown) [(41), 8-(4-Allyloxy-3-bromo-5-methoxy-phenyl)-6-amino-8H-[1,3]dioxolo[4,5-g]chromene-7-carbonitrile], the IC50 in data set [1] was found to be 0.618 µM; in data set [2] it was 0.47 µM; in data set [3], 0.551 µM; in data set [4], 0.641 µM; in data set [7], 0.045 µM. For the same compound, the IC50 at 24 h in data set [5] and in data set [6] was over 90 µM throughout.

Turning to `C=CCOc1c(Br)cc(C2C(C(=O)OCC)=C(N)Oc3cc4c(cc32)OCO4)cc1OC` (stereo not shown) [(42), 8-(4-Allyloxy-3-bromo-5-methoxy-phenyl)-6-amino-8H-[1,3]dioxolo[4,5-g]chromene-7-carboxylic acid ethyl ester], the IC50 in data set [1] was found to be 0.343 µM; in data set [2] it was 0.293 µM; in data set [3] it was 0.25 µM; in data set [4], 0.469 µM; in data set [7] (24 h) it was 0.055 µM. Further, the IC50 at 24 h in data set [5] and in data set [6] was over 90 µM throughout.
